From patent US20150231199A1, “PEPTIDES AND THEIR USES” (priority 2012, published 2015)
≈ marks a conversion by molar mass, not a printed value. Read-outs that look alike come from different tables or passages of the source. Positions of bridges follow the written chain, without caps; N, C: chain ends. Residues, ends and D or L forms follow the SMILES beside them. Chains are numbered I, II in the order given. *: point of attachment. Lauroyl = CCCCCCCCCCCC(=O)*; Decanoyl = CCCCCCCCCC(=O)*; Octanoyl = CCCCCCCC(=O)*; Hexanoyl = CCCCCC(=O)*; Butyryl = CCCC(=O)*

Tests used:
[1] = tested on: Methicillin-resistant Staphylococcus aureus (MRSA); format: cell-based
Description: (§1) V2-dimer and all lipopeptides (FIG. 1A) used in this study were purchased from Mimotopes. All peptides were prepared by dissolving in sterile water to make 1000 μg/mL stock solutions. Minimum Inhibitory Concentration (MIC) determination was carried out in Mueller Hinton Broth (MHB) using the broth macro-dilution method as described by the Clinical and Laboratory Standards Institute (CLSI). Then, cation-adjusted MHB (CA-MHB) was used to prepare serial two fold dilutions of the compounds in test tubes. The concentration of the inoculums suspension was also adjusted to approximately 5×10^5 Colony Forming Units (CFU)/mL using MHB. Bacteria were incubated with the compounds for 24 hours at 35° C. prior to reading. In this study, Gram-positive strains used were Staphylococcus aureus DM4001 and Methicillin-resistant Staphylococcus aureus (MRSA) DM9808. Gram-negative strains used were Klebsiella pneumoniae DM4299, Pseudomonas aeruginosa ATCC23155 and Escherichia coli ATCC27922.
(§2) Methods used are as described in Example 1 above.

[2] = tested on: Pseudomonas aeruginosa; format: cell-based
Description: as §1, §2

[3] = tested on: Staphylococcus aureus; format: cell-based
Description: as §1, §2

[4] = tested on: Klebsiella pneumoniae DM4299; format: cell-based
Description: as §1

[5] = tested on: Escherichia coli ATCC27922; format: cell-based
Description: as §1

[6] = tested on: red blood cells (RBCs) of New Zealand white rabbits; test: in vitro; format: cell-based, rabbit
Description: Fresh red blood cells (RBCs) of New Zealand white rabbits were used for this experiment. The RBCs obtained were centrifuged at 3000 rpm for 10 min. Supernatant was removed and washed twice with sterile PBS Buffer (20 mM, 100 mM NaCl, pH 7). The RBCs were further diluted to 8% stock solution in PBS. Peptides were dissolved in PBS with desired stock concentrations. When compounds were mixed with RBCs, desired concentration of 4% RBCs was obtained. For C14V2D and C16V2D, they were dissolved in Dimethylformamide ([…]; DMF) with desired stock concentrations. When compounds were mixed with RBCs, desired concentration of 4% RBCs and 0.5% DMF was obtained. DMF concentration of <1% was used as it had negligible hemolytic activity on RBCs. The mixtures were added to 1.5 mL centrifuge tubes and incubated at 37° C. for 1 h. After incubation, the blood was centrifuged at 3000 rpm for 3 min at 4° C. 100 μL of the supernatant was transferred into transparent 96-well plate. The absorbance was measured at 576 nm using a microplate reader (TECAN Infinite 200M Pro). 2% Triton X-100 was used as positive control. PBS was used as negative controls. The amount of hemoglobin released was calculated using the following equation: […]

Work on `CC(=O)N[C@@H](CCCNC(=N)N)C(=O)NCC(=O)N[C@@H](CCCNC(=N)N)C(=O)N[C@@H](CCCCN)C(=O)NCC(=O)NCC(=O)N[C@@H](CCCNC(=N)N)C(=O)N[C@@H](CCCNC(=N)N)C(=O)NCCCC[C@H](NC(=O)[C@H](CCCNC(=N)N)NC(=O)[C@H](CCCNC(=N)N)NC(=O)CNC(=O)CNC(=O)[C@H](CCCCN)NC(=O)[C@H](CCCNC(=N)N)NC(=O)CNC(=O)[C@H](CCCNC(=N)N)NC(C)=O)C(=O)N[C@@H](CCCCN)C(=O)O` [Peptide C2-G2D, (CH3—CO—NH—RGRKGGRR)2KK] (I: Ac-RGRKGGRRKK-OH / II: Ac-RGRKGGRR; amide I:9-II:C; N-terminus and C-terminus assumed) yielded an MIC [1] of 5.66 µM (≈ 12.5 µg/mL), an MIC [2] of 2.83 µM (≈ 6.24 µg/mL) and an MIC [3] of 5.52 µM (≈ 12.2 µg/mL). The MIC [4] was 5.66 µM (≈ 12.5 µg/mL).
In the case of `CCCC(=O)N[C@@H](CCCNC(=N)N)C(=O)NCC(=O)N[C@@H](CCCNC(=N)N)C(=O)N[C@@H](CCCCN)C(=O)NCC(=O)NCC(=O)N[C@@H](CCCNC(=N)N)C(=O)N[C@@H](CCCNC(=N)N)C(=O)NCCCC[C@H](NC(=O)[C@H](CCCNC(=N)N)NC(=O)[C@H](CCCNC(=N)N)NC(=O)CNC(=O)CNC(=O)[C@H](CCCCN)NC(=O)[C@H](CCCNC(=N)N)NC(=O)CNC(=O)[C@H](CCCNC(=N)N)NC(=O)CCC)C(=O)N[C@@H](CCCCN)C(=O)O` [Peptide C4-G2D, (C3H7—CO—NH—RGRKGGRR)2KK] (I: Butyryl-RGRKGGRRKK-OH / II: Butyryl-RGRKGGRR; amide I:9-II:C; N-terminus and C-terminus assumed), the MIC [1] was 5.52 µM (≈ 12.5 µg/mL), the MIC [2] was 2.76 µM (≈ 6.25 µg/mL) and the MIC [3] was 5.39 µM (≈ 12.2 µg/mL). The MIC [4] was 5.52 µM (≈ 12.5 µg/mL).
With `CCCCCCCCCCCC(=O)N[C@@H](CCCNC(=N)N)C(=O)NCC(=O)N[C@@H](CCCNC(=N)N)C(=O)N[C@@H](CCCCN)C(=O)N[C@H](C(=O)N[C@H](C(=O)N[C@@H](CCCNC(=N)N)C(=O)N[C@@H](CCCNC(=N)N)C(=O)NCCCC[C@H](NC(=O)[C@H](CCCNC(=N)N)NC(=O)[C@H](CCCNC(=N)N)NC(=O)[C@@H](NC(=O)[C@@H](NC(=O)[C@H](CCCCN)NC(=O)[C@H](CCCNC(=N)N)NC(=O)CNC(=O)[C@H](CCCNC(=N)N)NC(=O)CCCCCCCCCCC)C(C)C)C(C)C)C(=O)N[C@@H](CCCCN)C(=O)O)C(C)C)C(C)C` [Peptide C12-V2D, (C11H23—CO—NH—RGRKVVRR)2KK] (I: Lauroyl-RGRKVVRRKK-OH / II: Lauroyl-RGRKVVRR; amide I:9-II:C) the MIC [1] was 4.71 µM (≈ 12.5 µg/mL), the MIC [2] was 4.71 µM (≈ 12.5 µg/mL) and the MIC [3] was 4.71 µM (≈ 12.5 µg/mL). For the same compound, the MIC [5] was 4.71 µM (≈ 12.5 µg/mL), the MIC [4] was 4.71 µM (≈ 12.5 µg/mL) and the HC10 [6] was 542.8 ± 53.0 µg/mL.
For `CCCCCCCCCC(=O)N[C@@H](CCCNC(=N)N)C(=O)NCC(=O)N[C@@H](CCCNC(=N)N)C(=O)N[C@@H](CCCCN)C(=O)NCC(=O)NCC(=O)N[C@@H](CCCNC(=N)N)C(=O)N[C@@H](CCCNC(=N)N)C(=O)NCCCC[C@H](NC(=O)[C@H](CCCNC(=N)N)NC(=O)[C@H](CCCNC(=N)N)NC(=O)CNC(=O)CNC(=O)[C@H](CCCCN)NC(=O)[C@H](CCCNC(=N)N)NC(=O)CNC(=O)[C@H](CCCNC(=N)N)NC(=O)CCCCCCCCC)C(=O)N[C@@H](CCCCN)C(=O)O` [Peptide C10-G2D, (C9H19—CO—NH—RGRKGGRR)2KK] (I: Decanoyl-RGRKGGRRKK-OH / II: Decanoyl-RGRKGGRR; amide I:9-II:C; N-terminus and C-terminus assumed), the MIC [1] was 2.57 µM (≈ 6.25 µg/mL), the MIC [2] was 2.57 µM (≈ 6.25 µg/mL) and the MIC [3] was 2.51 µM (≈ 6.1 µg/mL). For the same compound, the MIC [4] was 2.57 µM (≈ 6.25 µg/mL).
Work on `CCCCCC(=O)N[C@@H](CCCNC(=N)N)C(=O)NCC(=O)N[C@@H](CCCNC(=N)N)C(=O)N[C@@H](CCCCN)C(=O)N[C@H](C(=O)N[C@H](C(=O)N[C@@H](CCCNC(=N)N)C(=O)N[C@@H](CCCNC(=N)N)C(=O)NCCCC[C@H](NC(=O)[C@H](CCCNC(=N)N)NC(=O)[C@H](CCCNC(=N)N)NC(=O)[C@@H](NC(=O)[C@@H](NC(=O)[C@H](CCCCN)NC(=O)[C@H](CCCNC(=N)N)NC(=O)CNC(=O)[C@H](CCCNC(=N)N)NC(=O)CCCCC)C(C)C)C(C)C)C(=O)N[C@@H](CCCCN)C(=O)O)C(C)C)C(C)C` [Peptide C6-V2D, (C5H11—CO—NH—RGRKVVRR)2KK] (I: Hexanoyl-RGRKVVRRKK-OH / II: Hexanoyl-RGRKVVRR; amide I:9-II:C) yielded an MIC [1] of 1.26 µM (≈ 3.13 µg/mL), an MIC [2] of 5.03 µM (≈ 12.5 µg/mL) and an MIC [3] of 2.51 µM (≈ 6.24 µg/mL). The MIC [5] was 2.51 µM (≈ 6.24 µg/mL), the MIC [4] was 5.03 µM (≈ 12.5 µg/mL) and the HC10 ([6]; red cells of rabbit, 1 h) was over 2000 µg/mL.
`CCCC(=O)N[C@@H](CCCNC(=N)N)C(=O)NCC(=O)N[C@@H](CCCNC(=N)N)C(=O)N[C@@H](CCCCN)C(=O)N[C@H](C(=O)N[C@H](C(=O)N[C@@H](CCCNC(=N)N)C(=O)N[C@@H](CCCNC(=N)N)C(=O)NCCCC[C@H](NC(=O)[C@H](CCCNC(=N)N)NC(=O)[C@H](CCCNC(=N)N)NC(=O)[C@@H](NC(=O)[C@@H](NC(=O)[C@H](CCCCN)NC(=O)[C@H](CCCNC(=N)N)NC(=O)CNC(=O)[C@H](CCCNC(=N)N)NC(=O)CCC)C(C)C)C(C)C)C(=O)N[C@@H](CCCCN)C(=O)O)C(C)C)C(C)C` [Peptide C4-V2D, (C3H7—CO—NH—RGRKVVRR)2KK] (I: Butyryl-RGRKVVRRKK-OH / II: Butyryl-RGRKVVRR; amide I:9-II:C) showed an MIC [1] of 2.57 µM (≈ 6.25 µg/mL), an MIC [2] of 10.28 µM (≈ 25 µg/mL) and an MIC [3] of 2.57 µM (≈ 6.25 µg/mL). It also gave an MIC [5] of 2.57 µM (≈ 6.25 µg/mL), an MIC [4] of 5.14 µM (≈ 12.5 µg/mL) and an HC10 ([6]; red cells of rabbit, 1 h) of over 2000 µg/mL.
Compound `CCCCCCCC(=O)N[C@@H](CCCNC(=N)N)C(=O)NCC(=O)N[C@@H](CCCNC(=N)N)C(=O)N[C@@H](CCCCN)C(=O)NCC(=O)NCC(=O)N[C@@H](CCCNC(=N)N)C(=O)N[C@@H](CCCNC(=N)N)C(=O)NCCCC[C@H](NC(=O)[C@H](CCCNC(=N)N)NC(=O)[C@H](CCCNC(=N)N)NC(=O)CNC(=O)CNC(=O)[C@H](CCCCN)NC(=O)[C@H](CCCNC(=N)N)NC(=O)CNC(=O)[C@H](CCCNC(=N)N)NC(=O)CCCCCCC)C(=O)N[C@@H](CCCCN)C(=O)O` [Peptide C8-G2D, (C7H15—CO—NH—RGRKGGRR)2KK] (I: Octanoyl-RGRKGGRRKK-OH / II: Octanoyl-RGRKGGRR; amide I:9-II:C; N-terminus and C-terminus assumed) has an MIC [1] of 2.63 µM (≈ 6.25 µg/mL), an MIC [2] of 2.63 µM (≈ 6.25 µg/mL) and an MIC [3] of 2.57 µM (≈ 6.1 µg/mL). It also gave an MIC [4] of 2.63 µM (≈ 6.25 µg/mL).
`CCCCCC(=O)N[C@@H](CCCNC(=N)N)C(=O)NCC(=O)N[C@@H](CCCNC(=N)N)C(=O)N[C@@H](CCCCN)C(=O)NCC(=O)NCC(=O)N[C@@H](CCCNC(=N)N)C(=O)N[C@@H](CCCNC(=N)N)C(=O)NCCCC[C@H](NC(=O)[C@H](CCCNC(=N)N)NC(=O)[C@H](CCCNC(=N)N)NC(=O)CNC(=O)CNC(=O)[C@H](CCCCN)NC(=O)[C@H](CCCNC(=N)N)NC(=O)CNC(=O)[C@H](CCCNC(=N)N)NC(=O)CCCCC)C(=O)N[C@@H](CCCCN)C(=O)O` [Peptide C6-G2D, (C5H11—CO—NH—RGRKGGRR)2KK] (I: Hexanoyl-RGRKGGRRKK-OH / II: Hexanoyl-RGRKGGRR; amide I:9-II:C; N-terminus and C-terminus assumed) gave an MIC [1] of 2.70 µM (≈ 6.26 µg/mL), an MIC [2] of 5.39 µM (≈ 12.5 µg/mL) and an MIC [3] of 5.26 µM (≈ 12.2 µg/mL). It also gave an MIC [4] of 2.70 µM (≈ 6.26 µg/mL).
`CCCCCCCCCCCC(=O)N[C@@H](CCCNC(=N)N)C(=O)NCC(=O)N[C@@H](CCCNC(=N)N)C(=O)N[C@@H](CCCCN)C(=O)NCC(=O)NCC(=O)N[C@@H](CCCNC(=N)N)C(=O)N[C@@H](CCCNC(=N)N)C(=O)NCCCC[C@H](NC(=O)[C@H](CCCNC(=N)N)NC(=O)[C@H](CCCNC(=N)N)NC(=O)CNC(=O)CNC(=O)[C@H](CCCCN)NC(=O)[C@H](CCCNC(=N)N)NC(=O)CNC(=O)[C@H](CCCNC(=N)N)NC(=O)CCCCCCCCCCC)C(=O)N[C@@H](CCCCN)C(=O)O` [Peptide C12-G2D, (C11H23—CO—NH—RGRKGGRR)2KK] (I: Lauroyl-RGRKGGRRKK-OH / II: Lauroyl-RGRKGGRR; amide I:9-II:C; N-terminus and C-terminus assumed) was tested, and the MIC [1] was 40.21 µM (≈ 100 µg/mL), the MIC [2] was over 40.21 µM and the MIC [3] was over 40.21 µM. The MIC [4] was 40.21 µM (≈ 100 µg/mL).
